Measured values: patent US10167262B2, “Herbicidal substituted 3-arylpyrazoles” (FMC CORPORATION, priority 2014, dated 2019)

What was measured:
Format in all cases: in vivo
[1] = tested on: sedge, umbrella (small-flower umbrella sedge, Cyperus difformis); assay: Test B flooded paddy test, plant response rating 0-100; details: Flood, 250 g ai/ha; scale 0 to 100 (0 no effect, 100 complete control); 13 to 15 days
In short: (§1)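 Pots were flooded to 3 cm above the soil surface at treatment, compound applied directly to the paddy water, and that depth held throughout. Plants were kept in a greenhouse for 13 to 15 days, then visually rated against untreated controls.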

rice (Oryza sativa) = assay: as above; details: Flood, 250 g ai/ha; scale 0 to 100 (0 no effect, 100 complete control); 13 to 15 days
In short: as §1

[2] = tested on: barnyardgrass (Echinochloa crus-galli); assay: as above; details: Flood, 250 g ai/ha; scale 0 to 100 (0 no effect, 100 complete control); 13 to 15 days
In short: as §1

[3] = tested on: ducksalad (Heteranthera limosa); assay: as above; details: Flood, 250 g ai/ha; scale 0 to 100 (0 no effect, 100 complete control); 13 to 15 days
In short: as §1

[4] = tested on: downy bromegrass (Bromus tectorum); assay: Test C postemergence greenhouse test, plant response rating 0-100; details: for Plant response rating, Bromegrass, Downy: scale 0 to 100
In short: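 Plants rated visually 0 (no effect) to 100 (complete control) against untreated controls after 13 to 15 days in the greenhouse, dash indicating no result. Treatment was a postemergence application of formulated chemicals at the 1- to 4-leaf stage (2 to 18 cm), in pots of peat-vermiculite medium.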

[5] = tested on: barnyardgrass (Echinochloa crus-galli); assay: Test C pre-/postemergence greenhouse test, plant response rating 0-100
In short: (§2)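 Visual 0–100 control scores, taken 13 to 15 days post-application in a greenhouse, reflect treatment preemergence (seed in loam soil with sand) or postemergence (2–18 cm plants in peat moss, vermiculite medium). A dash marks no result.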

[6] = tested on: oilseed rape (Brassica napus); assay: as above
In short: as §2

[7] = tested on: waterhemp (common waterhemp, Amaranthus rudis); assay: as above
In short: as §2

[8] = tested on: palmer pigweed (Amaranthus palmeri); assay: Test E pre-/postemergence greenhouse test, plant response rating 0-100; details: Postemergence, scale 0 to 100
In short: (§3)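 Sow seeds in silt loam and treat preemergence; at the same time, spray postemergence on 1- to 4-leaf plants in peat/vermiculite mix. Use a non-phytotoxic solvent plus surfactant as carrier. Hold 14–21 days in greenhouse, then score visually 0–100 against controls.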

[9] = tested on: arrowleaf sida (Sida rhombifolia); assay: as above; details: Postemergence
In short: as §3

[10] = Postemergence, 250 g ai/ha, scale 0 to 100
[11] = Postemergence, 500 g ai/ha, scale 0 to 100
[12] = 500 g ai/ha, scale 0 to 100 (0 no effect, 100 complete control)

## Cn1cc(C(=O)c2ccccc2)c(-c2cc(Br)cc(Br)c2)n1 [Compound 53]
[1]
  Plant response rating, Sedge, Umbrella: 40
Rice (Oryza sativa)
  Plant response rating, Rice: 0
[2]
  Plant response rating, Barnyardgrass: 0
[3]
  Plant response rating, Ducksalad: 0
[4]; 62 g ai/ha
  Plant response rating (0 to 100), Bromegrass, Downy: 0
[4]; 125 g ai/ha
  Plant response rating (0 to 100), Bromegrass, Downy: 0
[4]; 250 g ai/ha
  Plant response rating, Bromegrass, Downy: 0
[4]; 500 g ai/ha
  Plant response rating, Bromegrass, Downy: 0

## Fc1ccccc1NN=C(c1ccccc1)c1c[nH]nc1-c1cc(Cl)cc(Cl)c1 [Compound 57]
[1]
  Plant response rating, Sedge, Umbrella: 75
Rice (Oryza sativa)
  Plant response rating, Rice: 0
[2]
  Plant response rating, Barnyardgrass: 0
[3]
  Plant response rating, Ducksalad: 0
[4]; 31 g ai/ha
  Plant response rating (0 to 100), Bromegrass, Downy: 0
[4]; 62 g ai/ha
  Plant response rating (0 to 100), Bromegrass, Downy: 0
[4]; 125 g ai/ha
  Plant response rating (0 to 100), Bromegrass, Downy: 0
[4]; 250 g ai/ha
  Plant response rating, Bromegrass, Downy: 0

## Clc1cc(Cl)cc(-c2n[nH]cc2C(=NNc2ccccc2Cl)c2ccccc2)c1 [Compound 66]
[1]
  Plant response rating, Sedge, Umbrella: 70
Rice (Oryza sativa)
  Plant response rating, Rice: 0
[2]
  Plant response rating, Barnyardgrass: 0
[3]
  Plant response rating, Ducksalad: 0
[4]; 62 g ai/ha
  Plant response rating (0 to 100), Bromegrass, Downy: 0
[4]; 125 g ai/ha
  Plant response rating (0 to 100), Bromegrass, Downy: 0
[4]; 250 g ai/ha
  Plant response rating, Bromegrass, Downy: 0
[4]; 500 g ai/ha
  Plant response rating, Bromegrass, Downy: 0

## CCOC(OCC)(c1cccs1)c1c[nH]nc1-c1cc(Cl)cc(Cl)c1 [Compound 27]
[1]
  Plant response rating, Sedge, Umbrella: 0
Rice (Oryza sativa)
  Plant response rating, Rice: 0
[2]
  Plant response rating, Barnyardgrass: 0
[3]
  Plant response rating, Ducksalad: 0
[5]; Postemergence, 62 g ai/ha
  Plant response rating (0 to 100), Barnyardgrass: 0
[5]; Postemergence, 125 g ai/ha, scale 0 to 100
  Plant response rating, Barnyardgrass: 0
[5]; [10]
  Plant response rating, Barnyardgrass: 0
[5]; [11]
  Plant response rating, Barnyardgrass: 10
[5]; Preemergence, 62 g ai/ha
  Plant response rating, Barnyardgrass: 0
[5]; Preemergence, 125 g ai/ha
  Plant response rating, Barnyardgrass: 0
[5]; Preemergence, 250 g ai/ha
  Plant response rating, Barnyardgrass: 0
[5]; Preemergence, 500 g ai/ha
  Plant response rating, Barnyardgrass: 0
[6]; Postemergence, 62 g ai/ha
  Plant response rating (0 to 100), Oilseed Rape: 45
[6]; Postemergence, 125 g ai/ha
  Plant response rating (0 to 100), Oilseed Rape: 50
[6]; [10]
  Plant response rating, Oilseed Rape: 50
[6]; [11]
  Plant response rating, Oilseed Rape: 45
[6]; Preemergence, 62 g ai/ha
  Plant response rating, Oilseed Rape: 70
[6]; Preemergence, 125 g ai/ha
  Plant response rating, Oilseed Rape: 90
[6]; Preemergence, 250 g ai/ha
  Plant response rating, Oilseed Rape: 85
[6]; Preemergence, 500 g ai/ha
  Plant response rating, Oilseed Rape: 90
[7]; Postemergence, 62 g ai/ha
  Plant response rating (0 to 100), Waterhemp: 95
[7]; Postemergence, 125 g ai/ha
  Plant response rating (0 to 100), Waterhemp: 98
[7]; [10]
  Plant response rating, Waterhemp: 98
[7]; [11]
  Plant response rating, Waterhemp: 100
[7]; Preemergence, 62 g ai/ha
  Plant response rating, Waterhemp: 100
[7]; Preemergence, 125 g ai/ha
  Plant response rating, Waterhemp: 100
[7]; Preemergence, 250 g ai/ha
  Plant response rating, Waterhemp: 100
[7]; Preemergence, 500 g ai/ha
  Plant response rating, Waterhemp: 100

## Fc1ccc(NN=C(c2ccccc2)c2c[nH]nc2-c2cc(Cl)cc(Cl)c2)cc1 [Compound 35]
[1]
  Plant response rating, Sedge, Umbrella: 0
Rice (Oryza sativa)
  Plant response rating, Rice: 0
[2]
  Plant response rating, Barnyardgrass: 0
[3]
  Plant response rating, Ducksalad: 0
[4]; 62 g ai/ha
  Plant response rating (0 to 100), Bromegrass, Downy: 0
[4]; 125 g ai/ha
  Plant response rating (0 to 100), Bromegrass, Downy: 0
[4]; 250 g ai/ha
  Plant response rating, Bromegrass, Downy: 0
[4]; 500 g ai/ha
  Plant response rating, Bromegrass, Downy: 0
[8]; 31 g ai/ha
  Plant response rating, Pigweed, Palmer: 75
[8]; 62 g ai/ha
  Plant response rating, Pigweed, Palmer: 80
[8]; 125 g ai/ha
  Plant response rating, Pigweed, Palmer: 98
[8]; 250 g ai/ha
  Plant response rating, Pigweed, Palmer: 100
[8]; 500 g ai/ha
  Plant response rating, Pigweed, Palmer: 100
[9]; 31 g ai/ha, scale 0 to 100
  Plant response rating, Arrowleaf Sida: 50
[9]; 62 g ai/ha, scale 0 to 100
  Plant response rating, Arrowleaf Sida: 60
[9]; 125 g ai/ha, scale 0 to 100
  Plant response rating, Arrowleaf Sida: 70
[9]; 250 g ai/ha, scale 0 to 100
  Plant response rating, Arrowleaf Sida: 80
[9]; [12]
  Plant response rating, Arrowleaf Sida: 90

## Fc1cccc(NN=C(c2ccccc2)c2c[nH]nc2-c2cc(Cl)cc(Cl)c2)c1 [Compound 58]
[1]
  Plant response rating, Sedge, Umbrella: 0
Rice (Oryza sativa)
  Plant response rating, Rice: 0
[2]
  Plant response rating, Barnyardgrass: 0
[3]
  Plant response rating, Ducksalad: 0
[4]; 62 g ai/ha
  Plant response rating (0 to 100), Bromegrass, Downy: 0
[4]; 125 g ai/ha
  Plant response rating (0 to 100), Bromegrass, Downy: 0
[4]; 250 g ai/ha
  Plant response rating, Bromegrass, Downy: 0
[4]; 500 g ai/ha
  Plant response rating, Bromegrass, Downy: 0
[8]; 31 g ai/ha
  Plant response rating, Pigweed, Palmer: 80
[8]; 62 g ai/ha
  Plant response rating, Pigweed, Palmer: 80
[8]; 125 g ai/ha
  Plant response rating, Pigweed, Palmer: 95
[8]; 250 g ai/ha
  Plant response rating, Pigweed, Palmer: 95
[8]; 500 g ai/ha
  Plant response rating, Pigweed, Palmer: 100
[9]; 31 g ai/ha, scale 0 to 100
  Plant response rating, Arrowleaf Sida: 50
[9]; 62 g ai/ha, scale 0 to 100
  Plant response rating, Arrowleaf Sida: 50
[9]; 125 g ai/ha, scale 0 to 100
  Plant response rating, Arrowleaf Sida: 60
[9]; 250 g ai/ha, scale 0 to 100
  Plant response rating, Arrowleaf Sida: 75
[9]; [12]
  Plant response rating, Arrowleaf Sida: 80

## CCn1cc(C(=O)c2ccccc2)c(-c2cc(Br)cc(Br)c2)n1 [Compound 38]
[1]
  Plant response rating, Sedge, Umbrella: 0
Rice (Oryza sativa)
  Plant response rating, Rice: 0
[2]
  Plant response rating, Barnyardgrass: 0
[3]
  Plant response rating, Ducksalad: 0
[4]; 31 g ai/ha
  Plant response rating (0 to 100), Bromegrass, Downy: 0
[4]; 62 g ai/ha
  Plant response rating (0 to 100), Bromegrass, Downy: 0
[4]; 125 g ai/ha
  Plant response rating (0 to 100), Bromegrass, Downy: 0
[4]; 250 g ai/ha
  Plant response rating, Bromegrass, Downy: 0

## CC(C)n1cc(C(=O)c2ccccc2)c(-c2cc(Cl)cc(Cl)c2)n1 [Compound 44]
[1]
  Plant response rating, Sedge, Umbrella: 0
Rice (Oryza sativa)
  Plant response rating, Rice: 0
[2]
  Plant response rating, Barnyardgrass: 0
[3]
  Plant response rating, Ducksalad: 0
[4]; 31 g ai/ha
  Plant response rating (0 to 100), Bromegrass, Downy: 0
[4]; 62 g ai/ha
  Plant response rating (0 to 100), Bromegrass, Downy: 0
[4]; 125 g ai/ha
  Plant response rating (0 to 100), Bromegrass, Downy: 0
[4]; 250 g ai/ha
  Plant response rating, Bromegrass, Downy: 0
